# Measured values taken from US20030187240A1, “2' -modified oligonucleotides” (ISIS Pharmaceuticals, Inc., priority 1990, published 2003).
# pIC50: −log10 of the molar value. “Also recorded” adds a separate entry of the source. Strand notation (5' to 3'): a small letter for the sugar, then the base; units joined by * are phosphorothioate-linked, units joined directly phosphodiester-linked; [ ] holds rarer units or linkages, { } end groups; capitals alone tell only the bases. [OPr] = 2'-O-propyl nucleotide; [OPent] = 2'-O-pentyl nucleotide; d = 2'-deoxy (DNA); m = 2'-O-methyl; f = 2'-fluoro
# Tests used:
# PKC-α mRNA = PKC-α mRNA levels by Northern blot analysis; assay type: cell-based, human; details: FIGS. 3, 4 and 5; result in words
# Description: Oligonucleotides having SEQ ID NO: 4 were synthesized as uniformly phosphorothioate chimeric oligonucleotides having a centered deoxy gap of varying lengths flanked by 2′-O-methylated regions. These oligonucleotides (500 nM concentration) were tested for effects on PKC-α mRNA levels by Northern blot analysis.
# [1] = system: crude HeLa cellular extracts
# [2] = system: 25 mer oligoribonucleotide complement; assay: Melting curves of 2′-modified 17-mers with 7-deoxy gap; assay type: binding; details: 17-mer with 7-deoxy gap hybridized with 25 mer oligoribonucleotide complement
# Text: This is attributed to these phosphodiester compounds being substrates for nucleases that degrade such phosphodiester compounds thus preventing them potentially activating RNase H. Other sugar modifications: The effects of other 2′ sugar modifications besides 2′-O-methyl on antisense activity in chimeric oligonucleotides have been examined. These modifications are listed in Table 4, along with the Tm values obtained when 17 mer oligonucleotides having 2′-modified nucleotides flanking a 7-base deoxy gap were hybridized with a 25 mer oligoribonucleotide complement as described in Example 25. […] As alkyl length increased, Tm decreased.
# Absorbance vs. temperature curves were measured at 260 nm using a Gilford 260 spectrophotometer interfaced to an IBM PC computer and a Gilford Response II spectrophotometer. The buffer contained 100 mM Na^+, 10 mM phosphate and 0.1 mM EDTA, pH 7. Oligonucleotide concentration was 4 μM each strand determined from the absorbance at 85° C. and extinction coefficients calculated according to Puglisi and Tinoco [Methods in Enzymol., 180, 304 (1989). Tm values, free energies of duplex formation and association constants were obtained from fits of data to a two state model with linear sloping baselines. [Petersheim and Turner, Biochemistry, 22, 256 (1983). Reported parameters are averages of at least three experiments. For some oligonucleotides, free energies of duplex formation were also obtained from plots of Tm^−1 vs log10 (concentration). Borer et al., J. Mol. Biol., 86, 843 (1974).
# H-ras = assay: ras transactivation reporter gene assay; assay type: cell-based; details: for pIC50: antisense activity against H-ras, 17-mer with 7-deoxy gap
# Text: The expression plasmid pSV2-oli, containing an activated (codon 12, GGC→GTC) H-ras cDNA insert under control of the constitutive SV40 promoter, was a gift from Dr. Bruno Tocque (Rhone-Poulenc Sante, Vitry, France). This plasmid was used as a template to construct, by PCR, a H-ras expression plasmid under regulation of the steroid-inducible mouse mammary tumor virus (MMTV) promoter. To obtain H-ras coding sequences, the 570 bp coding region of the H-ras gene was amplified by PCR. The PCR primers were designed with unique restriction endonuclease sites in their 5′-regions to facilitate cloning. The PCR product containing the coding region of the H-ras codon 12 mutant oncogene was gel purified, digested, and gel purified once again prior to cloning. This construction was completed by cloning the insert into the expression plasmid pMAMneo (Clontech Laboratories, Calif.).
# The ras-responsive reporter gene pRD053 was used to detect ras expression. [Owen et al., Proc. Natl. Acad. Sci. U.S.A., 87, 3866 (1990).
# ras mRNA = assay: Northern blot analysis of ras expression in T24 cells; assay type: cell-based, human; details: result in words
# Description: The human urinary bladder cancer cell line T24 was obtained from the American Type Culture Collection (Rockville Md.). Cells were grown in McCoy's 5A medium with L-glutamine (GIBCO-BRL, Gaithersburg, Md.), supplemented with 10% heat-inactivated fetal calf serum and 50 U/ml each of penicillin and streptomycin. Cells were seeded on 100 mm plates. When they reached 70% confluency, they were treated with oligonucleotide. Plates were washed with 10 ml prewarmed PBS and 5 ml of OptiMEM (GIBCO) reduced-serum medium containing 2.5 μl DOTMA. Oligonucleotide was then added to the desired concentration. After 4 hours of treatment, the medium was replaced with McCoy's medium. Cells were harvested 48 hours after oligonucleotide treatment and RNA was isolated using a standard CsCl purification method. [Kingston in Current Protocols in Molecular Biology, F. M. Ausubel, R. Brent, R. E. Kingston, D. D. Moore, J. A. Smith, J. G. Seidman and K. Strahl, Eds., John Wiley and Sons, New York.] The human epithelioid carcinoma cell line HeLa 229 was obtained from the American Type Culture Collection (Bethesda, Md.). HeLa cells were maintained as monolayers on 6-well plates in Dulbecco's Modified Eagle's medium (DMEM) supplemented with 10 fetal bovine serum and 100 U/ml penicillin. Treatment with oligonucleotide and isolation of RNA were essentially as described above for T24 cells.
# Northern hybridization: 10 μg of each RNA was electrophoresed on a 1.2% agarose/formaldehyde gel and transferred overnight to GeneBind 45 nylon membrane (Pharmacia LKB, Piscataway, N.J.) using standard methods. [Kingston in Current Protocols in Molecular Biology, F. M. Ausubel, R. Brent, R. E. Kingston, D. D. Moore, J. A. Smith, J. G. Seidman and K. Strahl, Eds., John Wiley and Sons, New York.] RNA was UV-crosslinked to the membrane. Double-stranded ^32P-labeled probes were synthesized using the Prime a Gene labeling kit (Promega, Madison Wis.). The ras probe was a SalI-NheI fragment of a cDNA clone of the activated (mutant) H-ras mRNA having a GGC-to-GTC mutation at codon-12. The control probe was G3PDH. Blots were prehybridized for 15 minutes at 68° C. with the QuickHyb hybridization solution (Stratagene, La Jolla, Calif.). The heat-denatured radioactive probe (2.5×10^6 counts/2 ml hybridization solution) mixed with 100 μl of 10 mg/ml salmon sperm DNA was added and the membrane was hybridized for 1 hour at 68° C. The blots were washed twice for 15 minutes at room temperature in 2×SSC/0.1% SDS and once for 30 minutes at 60° C. with 0.1×SSC/0.1%SDS. Blots were autoradiographed and the intensity of signal was quantitated using an ImageQuant PhosphorImager (Molecular Dynamics, Sunnyvale, Calif.). Northern blots were first hybridized with the ras probe, then stripped by boiling for 15 minutes in 0.1×SSC/0.1%SDS and rehybridized with the control G3PDH probe to check for correct sample loading.
# [3] = system: codon-12 point mutation of mutant (activated) H-ras RNA; assay type: cell-based, human
substance,measurement,setting,value
"3522 (AsAsAsAsCsGsTsCsAsGsCsCsAsTsGsGsTsCsCsC; 2'-O-methyl/deoxy chimeric, phosphorothioate, as printed in the source, key not given here) [Oligonucleotide 3522]",effect on PKC-α mRNA levels,PKC-α mRNA,show reduction of PKC-α mRNA
"4233 (CCACACCGACGGCGCCC; 2'-O-methyl wings, mixed phosphorothioate/phosphodiester, pattern not given here) [Oligonucleotide 4233]",T½,[1],7 h
"4248 (CCACACCGACGGCGCCC; 2'-O-methyl wings, mixed phosphorothioate/phosphodiester, pattern not given here) [Oligonucleotide 4248]",degradation in HeLa cell extract,[1],no degradation after 5 hours
"5352 (AAAACGTCAGCCATGGTCCC; sugars from the 5' end m6 d6 m8, all phosphorothioate, methylation of C and T or U not given here) [Oligonucleotide 5352]",effect on PKC-α mRNA levels,PKC-α mRNA,show reduction of PKC-α mRNA; also recorded: most active
6632 (dT*dT*dC*dT*dC*dG*dC*dT*dG*dG*dT*dG*dA*dG*dT*dT*dT*dC; antisense) [Oligonucleotide 6632],effect on PKC-α mRNA levels,PKC-α mRNA,most active in reducing PKC-α mRNA levels
"6653 (TTCTCGCTGGTGAGTTTC; antisense; sugars from the 5' end [OPr]3 d11 [OPr]4, all phosphorothioate, methylation of C not given here) [Oligonucleotide 6653]",effect on PKC-α mRNA levels,PKC-α mRNA,most active in reducing PKC-α mRNA levels
7008 (mA*mAmAmAmCdG*dT*dC*dA*dG*dC*dC*dA*dT*dGdGdTdCdC*dC) [Oligonucleotide 7008],effect on PKC-α mRNA levels,PKC-α mRNA,show reduction of PKC-α mRNA
7082 (dT*dC*dT*dC*dG*dC*dT*dG*dG*dT*dG*dA*dG*dT*dT*dT*dC; antisense) [Oligonucleotide 7082],effect on PKC-α mRNA levels,PKC-α mRNA,most active in reducing PKC-α mRNA levels
"7083 (TCTCGCTGGTGAGTTTC; antisense; sugars from the 5' end [OPr]3 d9 [OPr]5, all phosphorothioate, methylation of C not given here) [Oligonucleotide 7083]",effect on PKC-α mRNA levels,PKC-α mRNA,most active in reducing PKC-α mRNA levels
"7273 (AAAACGTCAGCCATGGTCCC; 2'-O-propyl/deoxy, mixed P=S/P=O backbone, chemistry not fully specified) [Oligonucleotide 7273]",effect on PKC-α mRNA levels,PKC-α mRNA,more active than their 2′-O-methyl counterparts at lowering PKC-α mRNA levels
"7294 (AAAACGTCAGCCATGGTCCC; sugars from the 5' end [OPr]6 d14, linkages s1 o4 s9 o4 s1 (s phosphorothioate, o phosphodiester), methylation of C not given here) [Oligonucleotide 7294]",effect on PKC-α mRNA levels,PKC-α mRNA,more active than their 2′-O-methyl counterparts at lowering PKC-α mRNA levels
C^FC^FA^F C^FA^FCd CdGdAd CdGdGd C^FG^FC^F C^FC^F [Oligonucleotide 4690],Tm (° C.),[2]; listed as 2′-fluoro chimeric oligonucleotide,highest Tm of the series
same,Tm (° C.),[2]; listed as Fluoro,7 °C
same,antisense activity against H-ras (inhibition of ras expression),H-ras,most active
same,pIC50,H-ras,8.00
C^MC^MA^M C^MA^MCd CdGdAd CdGdGd C^MG^MC^M C^MC^M [Oligonucleotide 3985],Tm (° C.),[2],7 °C
same,pIC50,H-ras,7.70
same,inhibition of ras expression in T24 cells,ras mRNA,inhibited
CsCsAsCoAoCoCoGoAoCoGoGoCoGsCsCsC [Oligonucleotide 4241],T½,[1],0.9 h
same,"effect on ras expression (ras-luciferase reporter system), chimeric backbone-modified oligonucleotides",[3],completely inactive
CsCsAsCsAsCsCoGoAoCoGoGsCsGsCsCsC [Oligonucleotide 4606],T½,[1],1.75 h
CsCsAsCsAsCsCoGoAoCoGsGsCsGsCsCsC [Oligonucleotide 4593],T½,[1],~3.2 h
CsCsAsCsAsCsCsGoAoCoGsGsCsGsCsCsC [Oligonucleotide 4551],T½,[1],~3.75 h
CsCsAsCsAsCsCsGoAoCsGsGsCsGsCsCsC [Oligonucleotide 4546],T½,[1],approximately 5.5 hours
"O-Pentyl: 17-mer CCACACCGACGGCGCCC with 2′-O-pentyl nucleotides flanking a 7-base deoxy gap (sugars from the 5' end [OPent]5 d7 [OPent]5, backbone and methylation of C not given here)",Tm (° C.),[2],6 °C
same,pIC50,H-ras,6.82
"O-Propyl: 17-mer CCACACCGACGGCGCCC with 2′-O-propyl nucleotides flanking a 7-base deoxy gap (sugars from the 5' end [OPr]5 d7 [OPr]5, backbone and methylation of C not given here)",Tm (° C.),[2],7 °C
same,pIC50,H-ras,7.15
same,inhibition of ras expression in T24 cells,ras mRNA,inhibited
"Oligonucleotide 4689: SEQ ID NO: 1, 2′-fluoro-modified nucleotides flanking a 5-deoxy gap (CCACACCGACGGCGCCC; sugars from the 5' end f6 d5 f6, backbone and methylation of C not given here)",antisense activity against H-ras (inhibition of ras expression),H-ras,also active
